US9833497B2, “Human originated EGF domain proteins and use of the same” (CHENGDU SOURCEBIO LIMITED-LIABILITY COMPANY, priority 2013, dated 2017)

How the values were obtained:
Format in all cases: cell-based
[1] = test system: E. coli DH5α; experiment: Antibacterial activity: MIC and growth curve against E. coli DH5α in 96-well plate; conditions: minimal inhibitory concentration against E. coli DH5α; 96-well plate, 5×10^5 CFU/mL, 37° C., judged after 8 h
How it was run: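 Log-phase DH5α (OD600 about 0.5, 37° C, 185 rpm in LB) was pelleted, resuspended in fresh LB and seeded at 5×10^5 CFU/mL with recombinant protein at 50, 25 and 12.5 μg/mL (two-fold series), in triplicate. Plates were shaken at 175 rpm, 37° C, and OD600 was read every 30 min. MIC was the lowest concentration with no growth.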

[2] = test system: E. coli BL21; experiment: MIC against Gram-negative bacteria: E. coli BL21
How it was run: (§1)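 Growth inhibition by human EGF domain proteins was scored in LB liquid culture seeded at 5×10^5 CFU/mL. Protein was applied as a two-fold dilution series in triplicate, with shaking incubation at 37° C; MIC is the lowest concentration giving no growth.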

[3] = test system: Pseudomonas aeruginosa; experiment: MIC against Gram-negative bacteria: Pseudomonas aeruginosa; conditions: for MIC: P. aeruginosa
How it was run: as §1

[4] = test system: Klebsiella pneumonia; experiment: MIC against Gram-negative bacteria: Klebsiella pneumonia; conditions: for MIC: K. pneumonia
How it was run: as §1

[5] = test system: Enterobacter cloacae; experiment: MIC against Gram-negative bacteria: Enterobacter cloacae; conditions: for MIC: E. cloacae
How it was run: as §1

[6] = test system: Aeromonas hydrophila; experiment: MIC against Gram-negative bacteria: Aeromonas hydrophila; conditions: for MIC: A. hydrophila
How it was run: as §1

[7] = test system: Citrobacter diversus; experiment: MIC against Gram-negative bacteria: Citrobacter diversus; conditions: for MIC: C. diversus
How it was run: as §1

[8] = test system: Moraxella catarrhalis; experiment: MIC against Gram-negative bacteria: Moraxella catarrhalis; conditions: for MIC: M. catarrhalis
How it was run: as §1

[9] = test system: Proteus mirabilis; experiment: MIC against Gram-negative bacteria: Proteus mirabilis; conditions: for MIC: P. mirabilis
How it was run: as §1

[10] = test system: Proteus vulgaris; experiment: MIC against Gram-negative bacteria: Proteus vulgaris; conditions: for MIC: P. vulgaris
How it was run: as §1

[11] = test system: Serratia marcescens; experiment: MIC against Gram-negative bacteria: Serratia marcescens; conditions: for MIC: S. marcescens
How it was run: as §1

[12] = 96-well plate, 5×10^5 CFU/mL, 37° C., 10 h
[13] = 10 h cultivation at 37° C., 5×10^5 CFU/mL, two-fold serial dilution
[14] = E. coli BL21, 10 h cultivation at 37° C.

PRT521 (CNCNSFGSKSFDCEESGQCWCQPGVTGKKCDRCAHGYFNFQEGGCTA; listed as Homo sapiens)
MIC [1]: 50 µg/mL | MIC against E. coli BL21 [2, 12]: 25 µg/mL | MIC against P. aeruginosa [3, 12]: 12.5 µg/mL | MIC against K. pneumonia [4, 12]: 25 µg/mL | MIC against E. cloacae [5, 12]: 50 µg/mL | MIC against A. hydrophila [6, 12]: 25 µg/mL | MIC against C. diversus [7, 12]: 12.5 µg/mL | MIC against M. catarrhalis [8, 12]: 25 µg/mL | MIC against P. mirabilis [9, 12]: 50 µg/mL | MIC against P. vulgaris [10, 12]: 25 µg/mL | MIC against S. marcescens [11, 12]: 12.5 µg/mL

PRT591 (CACDPHNSLSPQCNQFTGQCPCREGFGGLMCSAAAIRQCPDRTYGDVATGCRA; listed as Homo sapiens)
MIC [1]: 25 µg/mL | MIC against E. coli BL21 [2, 12]: 50 µg/mL | MIC against P. aeruginosa [3, 12]: 25 µg/mL | MIC against K. pneumonia [4, 12]: 12.5 µg/mL | MIC against E. cloacae [5, 12]: 25 µg/mL | MIC against A. hydrophila [6, 12]: 50 µg/mL | MIC against C. diversus [7, 12]: 12.5 µg/mL | MIC against M. catarrhalis [8, 12]: 50 µg/mL | MIC against P. mirabilis [9, 12]: 12.5 µg/mL | MIC against P. vulgaris [10, 12]: 50 µg/mL | MIC against S. marcescens [11, 12]: 12.5 µg/mL

PRT110 (DIDECASSNGTLCAHICINTLGSYRCECREGYIREDDGKTCT; listed as Homo sapiens)
MIC [1]: 25 µg/mL | MIC (μg/mL) E. coli BL21 ([2]; E. coli BL21, 96-well plate, 5×10^5 CFU/mL, 37° C., 10 h): 12.5 µg/mL | MIC (μg/mL) P. aeruginosa ([3]; Pseudomonas aeruginosa, 96-well plate, 5×10^5 CFU/mL, 37° C., 10 h): 25 µg/mL | MIC (μg/mL) K. pneumonia ([4]; Klebsiella pneumonia, 96-well plate, 5×10^5 CFU/mL, 37° C., 10 h): 50 µg/mL | MIC (μg/mL) E. cloacae ([5]; Enterobacter cloacae, 96-well plate, 5×10^5 CFU/mL, 37° C., 10 h): 12.5 µg/mL | MIC (μg/mL) A. hydrophila ([6]; Aeromonas hydrophila, 96-well plate, 5×10^5 CFU/mL, 37° C., 10 h): 50 µg/mL | MIC (μg/mL) C. diversus ([7]; Citrobacter diversus, 96-well plate, 5×10^5 CFU/mL, 37° C., 10 h): 12.5 µg/mL | MIC (μg/mL) M. catarrhalis ([8]; Moraxella catarrhalis, 96-well plate, 5×10^5 CFU/mL, 37° C., 10 h): 50 µg/mL | MIC (μg/mL) P. mirabilis ([9]; Proteus mirabilis, 96-well plate, 5×10^5 CFU/mL, 37° C., 10 h): 12.5 µg/mL | MIC (μg/mL) P. vulgaris ([10]; Proteus vulgaris, 96-well plate, 5×10^5 CFU/mL, 37° C., 10 h): 12.5 µg/mL | MIC (μg/mL) S. marcescens ([11]; Serratia marcescens, 96-well plate, 5×10^5 CFU/mL, 37° C., 10 h): 12.5 µg/mL

PRT1097 (NIDECFSNPCIHGNCSDRVAAYHCTCEPGYTGVNCE; listed as Homo sapiens)
MIC [1]: 25 µg/mL | MIC E. coli BL21 [2, 13]: 12.5 µg/mL | MIC P. aeruginosa [3, 13]: 25 µg/mL | MIC K. pneumonia [4, 13]: 12.5 µg/mL | MIC E. cloacae [5, 13]: 25 µg/mL | MIC A. hydrophila [6, 13]: 12.5 µg/mL | MIC C. diversus [7, 13]: 25 µg/mL | MIC M. catarrhalis [8, 13]: 100 µg/mL | MIC P. mirabilis [9, 13]: 25 µg/mL | MIC P. vulgaris [10, 13]: 12.5 µg/mL | MIC S. marcescens [11, 13]: 25 µg/mL

PRT987 (NVDDCPGHRCLNGGTCVDGVNTYNCQCPPEWTGQFCT; listed as Homo sapiens)
MIC [1]: 25 µg/mL | MIC [2, 14]: 12.5 µg/mL | MIC ([3]; 10 h cultivation at 37° C.): 25 µg/mL | MIC ([4]; 10 h cultivation at 37° C.): 50 µg/mL | MIC ([5]; 10 h cultivation at 37° C.): 25 µg/mL | MIC ([6]; 10 h cultivation at 37° C.): 12.5 µg/mL | MIC ([7]; 10 h cultivation at 37° C.): 50 µg/mL | MIC ([8]; 10 h cultivation at 37° C.): 12.5 µg/mL | MIC ([9]; 10 h cultivation at 37° C.): 50 µg/mL | MIC ([10]; 10 h cultivation at 37° C.): 12.5 µg/mL | MIC ([11]; 10 h cultivation at 37° C.): 50 µg/mL

PRT999 (PEDNCTCHHGHCQRSSCVCDVGWTGPECE; listed as Homo sapiens)
MIC [1]: 12.5 µg/mL | MIC [2, 14]: 50 µg/mL | MIC ([3]; 10 h cultivation at 37° C.): 25 µg/mL | MIC ([4]; 10 h cultivation at 37° C.): 12.5 µg/mL | MIC ([5]; 10 h cultivation at 37° C.): 25 µg/mL | MIC ([6]; 10 h cultivation at 37° C.): 50 µg/mL | MIC ([7]; 10 h cultivation at 37° C.): 12.5 µg/mL | MIC ([8]; 10 h cultivation at 37° C.): 25 µg/mL | MIC ([9]; 10 h cultivation at 37° C.): 50 µg/mL | MIC ([10]; 10 h cultivation at 37° C.): 25 µg/mL | MIC ([11]; 10 h cultivation at 37° C.): 12.5 µg/mL

PRT1399 (ARVQCPDQCSGHGTYLPDTGLCSCDPNWMGPDCS; listed as Homo sapiens)
MIC [1]: 12.5 µg/mL | MIC against E. coli BL21 ([2]; E. coli BL21, 5×10^5 CFU/mL, 10 h cultivation at 37° C.): 12.5 µg/mL | MIC against P. aeruginosa ([3]; Pseudomonas aeruginosa, 5×10^5 CFU/mL, 10 h cultivation at 37° C.): 12.5 µg/mL | MIC against K. pneumonia ([4]; Klebsiella pneumonia, 5×10^5 CFU/mL, 10 h cultivation at 37° C.): 12.5 µg/mL | MIC against E. cloacae ([5]; Enterobacter cloacae, 5×10^5 CFU/mL, 10 h cultivation at 37° C.): 25 µg/mL | MIC against A. hydrophila ([6]; Aeromonas hydrophila, 5×10^5 CFU/mL, 10 h cultivation at 37° C.): 12.5 µg/mL | MIC against C. diversus ([7]; Citrobacter diversus, 5×10^5 CFU/mL, 10 h cultivation at 37° C.): 25 µg/mL | MIC against M. catarrhalis ([8]; Moraxella catarrhalis, 5×10^5 CFU/mL, 10 h cultivation at 37° C.): 12.5 µg/mL | MIC against P. mirabilis ([9]; Proteus mirabilis, 5×10^5 CFU/mL, 10 h cultivation at 37° C.): 25 µg/mL | MIC against P. vulgaris ([10]; Proteus vulgaris, 5×10^5 CFU/mL, 10 h cultivation at 37° C.): 12.5 µg/mL | MIC against S. marcescens ([11]; Serratia marcescens, 5×10^5 CFU/mL, 10 h cultivation at 37° C.): 25 µg/mL
